{"source": "ChEMBL document CHEMBL1122303", "about": "“Synthesis and biological activity of a 2-bromoethylamine (mustard) derivative of hemicholinium-3 and hemicholinium-15” (1983)", "type_in_all_cases": "functional", "key": {"Rattus norvegicus [1]": {"organism": "Rattus norvegicus", "assay": "Na-dependent high-affinity choline uptake at 25 nM concentration for 15 min post wash preincubation time."}, "Rattus norvegicus [2]": {"organism": "Rattus norvegicus", "assay": "Na-dependent high-affinity choline uptake at 25 nM concentration for 2.5 min post wash pre-incubation time."}, "Rattus norvegicus [3]": {"organism": "Rattus norvegicus", "assay": "In vitro inhibition of sodium-dependent high-affinity choline uptake activity (1 uM choline) at 1E-8 M concentration in the absence of thiosulfate"}, "Rattus norvegicus [4]": {"organism": "Rattus norvegicus", "assay": "In vitro inhibition of sodium-dependent high-affinity choline uptake activity (1 uM choline) at 1E-7 M concentration in the absence of thiosulfate"}, "Rattus norvegicus [5]": {"organism": "Rattus norvegicus", "assay": "inhibition of sodium-dependent high-affinity choline uptake activity at 25 nM concentration for 15 min post wash pre-incubation time."}, "Rattus norvegicus [6]": {"organism": "Rattus norvegicus", "assay": "inhibition of sodium-dependent high-affinity choline uptake activity at 25 nM concentration for 7.5 min post wash pre-incubation time."}, "Rattus norvegicus [7]": {"organism": "Rattus norvegicus", "assay": "In vitro inhibition of sodium-dependent high-affinity choline uptake activity (1 uM choline) at 5E-8 M concentration in the absence of thiosulfate"}, "Rattus norvegicus [8]": {"organism": "Rattus norvegicus", "assay": "inhibition of sodium-dependent high-affinity choline uptake activity at 25 nM concentration for 2.5 min post wash pre-incubation time."}, "Rattus norvegicus [9]": {"organism": "Rattus norvegicus", "assay": "In vitro inhibition of sodium-dependent high-affinity choline uptake activity (1 uM choline) at 1E-7 M concentration in the presence of thiosulfate"}, "Rattus norvegicus [10]": {"organism": "Rattus norvegicus", "assay": "In vitro inhibition of sodium-dependent high-affinity choline uptake activity (1 uM choline) at 5E-8 M concentration in the presence of thiosulfate"}, "Rattus norvegicus [11]": {"organism": "Rattus norvegicus", "assay": "Na-dependent high-affinity choline uptake at 25 nM concentration for 7.5 min post wash pre-incubation time."}, "Rattus norvegicus [12]": {"organism": "Rattus norvegicus", "assay": "In vitro inhibition of sodium-dependent high-affinity choline uptake activity (1 uM choline) at 2E-5 M concentration in the presence of thiosulfate"}, "Rattus norvegicus [13]": {"organism": "Rattus norvegicus", "assay": "In vitro inhibition of sodium-dependent high-affinity choline uptake activity (1 uM choline) at 2E-5 M concentration in the absence of thiosulfate"}}, "data": [{"smiles": "OC1(c2ccc(-c3ccc(C4(O)CN(CCBr)CCO4)cc3)cc2)CN(CCBr)CCO1", "note": "(configuration not stated)", "values": [{"measurement": "Choline uptake", "setting": "Rattus norvegicus [1]", "result": "54.9 pM (4 min)-1 (mg of protein)-1"}, {"measurement": "Choline uptake", "setting": "Rattus norvegicus [2]", "result": "58.8 pM (4 min)-1 (mg of protein)-1"}, {"measurement": "Inhibition", "setting": "Rattus norvegicus [3]", "result": 84, "unit": "%"}, {"measurement": "Inhibition", "setting": "Rattus norvegicus [4]", "result": 100, "unit": "%"}, {"measurement": "Inhibition", "setting": "Rattus norvegicus [5]", "result": 34, "unit": "%"}, {"measurement": "Inhibition", "setting": "Rattus norvegicus [6]", "result": 32.9, "unit": "%"}, {"measurement": "Inhibition", "setting": "Rattus norvegicus [7]", "result": 100, "unit": "%"}, {"measurement": "Inhibition", "setting": "Rattus norvegicus [8]", "result": 31.2, "unit": "%"}, {"measurement": "Inhibition", "setting": "Rattus norvegicus [9]", "result": 0, "unit": "%"}, {"measurement": "Inhibition", "setting": "Rattus norvegicus [10]", "result": 0, "unit": "%"}, {"measurement": "Choline uptake", "setting": "Rattus norvegicus [11]", "result": "59.8 pM (4 min)-1 (mg of protein)-1"}]}, {"smiles": "OC1(c2ccccc2)CN(CCBr)CCO1", "note": "(configuration not stated)", "values": [{"measurement": "Inhibition", "setting": "Rattus norvegicus [12]", "result": 9, "unit": "%"}, {"measurement": "Inhibition", "setting": "Rattus norvegicus [13]", "result": 71, "unit": "%"}]}, {"smiles": "C[N+]1(C)CCOC(O)(c2ccccc2)C1", "note": "(configuration not stated)", "values": [{"measurement": "Inhibition", "setting": "Rattus norvegicus [13]", "result": 58, "unit": "%"}]}, {"smiles": "C[N+]1(C)CCOC(O)(c2ccc(-c3ccc(C4(O)C[N+](C)(C)CCO4)cc3)cc2)C1", "note": "(configuration not stated) [HEMICHOLINIUM-3]", "values": [{"measurement": "Inhibition", "setting": "Rattus norvegicus [3]", "result": 35, "unit": "%"}, {"measurement": "Inhibition", "setting": "Rattus norvegicus [7]", "result": 83, "unit": "%"}, {"measurement": "Inhibition", "setting": "Rattus norvegicus [10]", "result": 85, "unit": "%"}]}]}
